The values that follow come from ChEMBL document CHEMBL4616625, “The Medicinal Chemistry in the Era of Machines and Automation: Recent Advances in Continuous Flow Technology” (J Med Chem, 2020).

In assay [1] the target is T1, Alpha-1B adrenergic receptor (Homo sapiens, UniProt P35368).
T1 sequence (P35368 whole entry): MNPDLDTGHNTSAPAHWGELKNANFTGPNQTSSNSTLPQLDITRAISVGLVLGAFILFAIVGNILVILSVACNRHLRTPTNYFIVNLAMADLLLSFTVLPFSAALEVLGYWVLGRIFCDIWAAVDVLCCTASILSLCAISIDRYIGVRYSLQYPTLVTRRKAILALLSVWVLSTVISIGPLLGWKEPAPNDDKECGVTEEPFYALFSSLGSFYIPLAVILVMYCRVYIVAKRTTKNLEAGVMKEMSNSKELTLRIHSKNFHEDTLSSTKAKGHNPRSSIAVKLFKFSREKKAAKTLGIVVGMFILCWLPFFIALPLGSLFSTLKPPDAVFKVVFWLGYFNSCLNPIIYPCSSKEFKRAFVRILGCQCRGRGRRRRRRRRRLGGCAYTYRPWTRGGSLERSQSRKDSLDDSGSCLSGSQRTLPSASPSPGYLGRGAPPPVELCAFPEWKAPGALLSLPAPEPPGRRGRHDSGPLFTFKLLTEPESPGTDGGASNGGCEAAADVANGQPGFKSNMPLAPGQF
Description: Inhibition of alpha1B adrenergic receptor (unknown origin).

For the next assay, the target named is Albumin (Homo sapiens, UniProt P02768). Description: Binding affinity to albumin (unknown origin). In kind it is ADME.

pKd, pKi: −log10 of the molar value.

Albumin, sequence (P02768 whole entry): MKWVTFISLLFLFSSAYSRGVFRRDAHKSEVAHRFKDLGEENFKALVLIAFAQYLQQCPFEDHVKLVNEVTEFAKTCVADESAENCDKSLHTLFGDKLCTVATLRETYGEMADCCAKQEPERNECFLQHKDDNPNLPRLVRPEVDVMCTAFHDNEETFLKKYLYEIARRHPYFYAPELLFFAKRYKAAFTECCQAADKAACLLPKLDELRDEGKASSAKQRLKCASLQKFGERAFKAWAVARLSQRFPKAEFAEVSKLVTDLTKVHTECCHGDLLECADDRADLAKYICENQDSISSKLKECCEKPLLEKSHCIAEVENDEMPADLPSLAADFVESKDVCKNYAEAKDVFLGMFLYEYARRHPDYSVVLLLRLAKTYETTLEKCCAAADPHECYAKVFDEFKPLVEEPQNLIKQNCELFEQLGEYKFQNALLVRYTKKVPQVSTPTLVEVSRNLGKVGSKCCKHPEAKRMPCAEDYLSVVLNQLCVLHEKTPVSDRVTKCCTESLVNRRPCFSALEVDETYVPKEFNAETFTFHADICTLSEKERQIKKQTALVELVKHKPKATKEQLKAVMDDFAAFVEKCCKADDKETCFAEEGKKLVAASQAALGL

Turning to `COc1ccc(-c2nc3ccccn3c2NCCN2CCOCC2)c(OC)c1`, the negative logarithm of the Ki (pKi) (as a rule, the negative decadic logarithm of the Ki, by convention in mol/L) in assay [1] is 5.70.

For `CCCN(CCC)C(=O)Cc1c(-c2ccc(Cl)cc2)nc2ccc(Cl)cn12` [ALPIDEM], the pKd (as a rule, −log10 of the Kd, conventionally taken in molar units) on Albumin is 5.70. The same measure, in the same setting: under `Cc1ccc(-c2nc3ccc(C)cn3c2CC(=O)N(C)C)cc1` [ZOLPIDEM] stands 4.20.
